Assay [1] concerns the target CRBN-DDB1 (CRBN_DDB1.7) (Homo sapiens, UniProt Q96SW2). Nature of the assay: Fluorescence polarization (FP) binding assay, CRBN_DDB1.7 construct. The settings on record: 0.05% PA, 0.1% BSA. On the procedure:
(§1) Example 2: Fluorescence Polarization (FP) Assay for Screening Compound Ligand Binders of CRBN-DDB1
(§2) Measuring compound ligand binding to CRBN-DDB 1 was carried out using an established sensitive and quantitative in vitro fluorescence polarization (FP) based binding assay. (See, I. J. Enyedy et al, J. Med. Chem., 44: […] [2001]). Compounds were dispensed from serially diluted DMSO stock into black 384-well compatible fluorescence polarization plates using an Echo acoustic dispenser. Compound binding to CRBN-DDB 1 was measured by displacement of an established CRBN binding ligand conjugated to an Alexa Fluor® dye (probe). A […] mixture containing 10nM CRBN-DDB1 and 5 nM probe in 50 mM Hepes, pH 7.4, 200 mM NaCl, 1% DMSO, 0.1% BSA and 0.05% o pluronic acid-127 acid was added to wells containing compound and incubated at room temperature for 60 min. Matching control wells excluding CRBN-DDB 1 were used to correct for background fluorescence. Plates were read on an Envision plate reader with appropriate FP filter sets. The corrected S (perpendicular) and P (parallel) values were used to calculate fluorescence polarization (FP) with the following equation: FP=1000*(S−G*P)/(S+G*P).
(§3) The fractional amount of bound probe (FB) to CRBN-DDB 1 as a function of compound concentration was fitted according to Wang; FEBS Letters 360, (1995), 111-114 to obtain fits for parameter offsets and binding constant (KA) of competitor compound.

In assay [2] the target is CRBN-DDB1 (CRBN_DDB1.3) (Homo sapiens, UniProt Q96SW2). Nature of the assay: Fluorescence polarization (FP) binding assay, CRBN_DDB1.3 construct. As to conditions: 0.05% PA, 0.1% BSA. On the procedure: as §1, §2, §3
[3] abbreviates: indoline binders, read-out: FP CRBN_DDB1.7 0.05% PA, 0.1% BSA ka nM.
[4] abbreviates: indoline binders, read-out: FP CRBN_DDB1.3 0.05% PA, 0.1% BSA ka nM.
[5] abbreviates: tetrahydroquinoline binders, read-out: FP CRBN_DDB1.3 0.05% PA, 0.1% BSA ka nM.
Where [6] appears, read: tetrahydroquinoline binders, read-out: FP CRBN_DDB1.7 0.05% PA, 0.1% BSA ka nM.
Where [7] appears, read: benzomorpholine binders, read-out: FP CRBN_DDB1.3 0.05% PA, 0.1% BSA Ka nM.

Read-outs that look alike come from different tables or passages of the source.

Sequence of CRBN-DDB1 (CRBN_DDB1.7) (Q96SW2 81-442 limits assumed): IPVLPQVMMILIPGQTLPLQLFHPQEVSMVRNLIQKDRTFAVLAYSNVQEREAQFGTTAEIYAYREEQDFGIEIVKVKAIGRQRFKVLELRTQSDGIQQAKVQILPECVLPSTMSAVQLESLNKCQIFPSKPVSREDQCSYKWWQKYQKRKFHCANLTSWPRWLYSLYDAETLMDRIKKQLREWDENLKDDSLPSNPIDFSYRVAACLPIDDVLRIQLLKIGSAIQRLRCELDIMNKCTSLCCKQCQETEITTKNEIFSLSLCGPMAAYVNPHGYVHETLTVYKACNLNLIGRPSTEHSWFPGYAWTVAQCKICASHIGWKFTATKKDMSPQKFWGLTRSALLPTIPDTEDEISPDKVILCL
Sequence of CRBN-DDB1 (CRBN_DDB1.3) (Q96SW2 318-426 limits assumed): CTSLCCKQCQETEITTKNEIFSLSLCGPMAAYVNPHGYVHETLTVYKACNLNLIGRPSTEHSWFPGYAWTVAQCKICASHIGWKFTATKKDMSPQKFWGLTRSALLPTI

Turning to `CC(C)(C)OC(=O)N1CCC(c2cccc3c2CCN3[C@@H]2CCC(=O)NC2=O)CC1` (single isomer, unassigned) [Compound 41-4], in assay [1] (setting [3]), the Kd is under 100000 nM. Still for that read-out and setting: the value for `CN(C(=O)OC(C)(C)C)C1CCN(c2c(F)ccc3c2CCN3[C@@H]2CCC(=O)NC2=O)CC1` (single isomer, unassigned) [Compound 44-9] was under 100000 nM; that for `O=C1CCC(N2CCc3c(N4CCNCC4)cccc32)C(=O)N1` (stereo not drawn) [Compound 37-4, 3-(4-piperazin-1-ylindolin-1-yl)piperidine-2,6-dione] was under 100000 nM. Take `CN(C(=O)OC(C)(C)C)[C@H]1CC[C@@H](c2c(F)ccc3c2CCN3C2CCC(=O)NC2=O)CC1` (single isomer, unassigned) [Compound 46-9b, tert-butyl ((1s,4s)-4-(1-(2,6-dioxopiperidin-3-yl)-5-fluoroindolin-4-yl)cyclohexyl)(methyl)carbamate]: the Kd in assay [2] (setting [4]) and in assay [1] (setting [3]) was under 100000 nM in each case. `CC(C)(C)OC(=O)N1CCC(c2cccc3c2CCCN3[C@@H]2CCC(=O)NC2=O)CC1` (single isomer, unassigned) [Compound 59-5]: the Kd in assay [2] (setting [5]) and in assay [1] (setting [6]) was under 100000 nM in each case. As for `CC(C)(C)OC(=O)N1CCC(c2c(F)cc3c(c2F)CCN3[C@@H]2CCC(=O)NC2=O)CC1` (single isomer, unassigned) [Compound 50-9], the Kd in assay [2] (setting [4]) and in assay [1] (setting [3]) was under 100000 nM in each case. Consider `CC(C)(C)OC(=O)N1CCC(c2cccc3c2CCCN3[C@H]2CCC(=O)NC2=O)CC1` (single isomer, unassigned) [Compound 59-6], for which the Kd in assay [2] (setting [5]) and in assay [1] (setting [6]) was under 100000 nM throughout.

As to `CN(C(=O)OC(C)(C)C)[C@H]1CC[C@H](c2c(F)ccc3c2CCN3C2CCC(=O)NC2=O)CC1` (single isomer, unassigned) [Compound 46-9a, tert-butyl ((1r,4r)-4-(1-(2,6-dioxopiperidin-3-yl)-5-fluoroindolin-4-yl)cyclohexyl)(methyl)carbamate], the Kd in assay [2] (setting [4]) and in assay [1] (setting [3]) was under 100000 nM in each case. In the case of `CN(C(=O)OC(C)(C)C)C1CCN(c2c(F)ccc3c2CCN3[C@H]2CCC(=O)NC2=O)CC1` (single isomer, unassigned) [Compound 44-8], the Kd in assay [1] (setting [3]) was under 100000 nM. With `CN(C(=O)OC(C)(C)C)C1CCN(c2cccc3c2CCN3C2CCC(=O)NC2=O)CC1` (racemic) [Compound 34-5, tert-butyl (1-(1-(2,6-dioxopiperidin-3-yl)indolin-4-yl)piperidin-4-yl)(methyl)carbamate], the Kd in assay [2] (setting [4]) and in assay [1] (setting [3]) was under 100000 nM throughout. Consider `O=C1CC[C@@H](N2CCc3c(N4CCC(O)CC4)cccc32)C(=O)N1` (single isomer, unassigned) [Compound 43-4], for which, in assay [1] (setting [3]), the Kd was under 1000 nM. For the molecule `O=C1CC[C@@H](N2CCc3c(N4CCC(CCO)CC4)cccc32)C(=O)N1` (single isomer, unassigned) [Compound 42-6], the Kd in assay [2] (setting [4]) and in assay [1] (setting [3]) was under 1000 nM in each case. Consider `CC(C)(C)OC(=O)N1CCC(c2ccc3c(c2F)CCN3[C@@H]2CCC(=O)NC2=O)CC1` (single isomer, unassigned) [Compound 47-7], for which the Kd in assay [2] (setting [4]) and in assay [1] (setting [3]) was under 100000 nM throughout. On to `CC(C)(C)OC(=O)N1CCC(c2ccc3c(c2F)CCN3[C@H]2CCC(=O)NC2=O)CC1` (single isomer, unassigned) [Compound 47-6], for which the Kd in assay [2] (setting [4]) and in assay [1] (setting [3]) was under 100000 nM in each case. `O=C1CC[C@H](N2CCc3c(N4CCC5(CC4)OCCO5)cccc32)C(=O)N1` (single isomer, unassigned) [Compound 45-3]: the figures for the Kd in assay [2] (setting [4]) and in assay [1] (setting [3]) were under 1000 nM and under 100000 nM, respectively.

In the case of `O=C1CC[C@H](N2CCc3c(N4CCC(O)CC4)cccc32)C(=O)N1` (single isomer, unassigned) [Compound 43-5], in assay [1] (setting [3]), the Kd is under 100000 nM.

Take `CC(C)(C)OC(=O)N1CCC(c2c(F)cc3c(c2F)CCN3[C@H]2CCC(=O)NC2=O)CC1` (single isomer, unassigned) [Compound 50-8]: the Kd in assay [2] (setting [4]) and in assay [1] (setting [3]) was under 100000 nM each time. Consider `O=C1CCC(N2CCCc3c(N4CCC(O)CC4)cccc32)C(=O)N1` (stereo not drawn) [Compound 65-7, 3-[5-(4-hydroxy-1-piperidyl)-3,4-dihydro-2H-quinolin-1-yl]piperidine-2,6-dione], for which, in assay [1] (setting [6]), the Kd is under 100000 nM. For `O=C1CCC(N2C(=O)COc3c(Br)cccc32)C(=O)N1` (stereo not drawn) [Compound 33-5, 3-(8-bromo-3-oxo-1,4-benzoxazin-4-yl)piperidine-2,6-dione], in assay [1] (benzomorpholine binders, read-out: FP CRBN_DDB1.7 0.05% PA, 0.1% BSA Ka nM), the Kd was at most 100000 nM. `O=C1CC[C@H](N2CCCc3c(N4CCC(CCO)CC4)cccc32)C(=O)N1` (single isomer, unassigned) [Compound 66-4]: in assay [2] (setting [5]), the Kd was under 1000 nM. On to `O=C1CCC(N2CCOc3c([C@@H]4CCNC4)cccc32)C(=O)N1` (stereo partly drawn) [Compound 14-7, 3-(8-((S)-pyrrolidin-3-yl)-2H-benzo[b][1,4]oxazin-4(3H)-yl)piperidine-2,6-dione], for which the Kd in assay [2] (setting [7]) was at most 100000 nM. `CC(C)(C)OC(=O)C1CCN(Cc2cccc3c2CCN3C2CCC(=O)NC2=O)CC1` (racemic) [Compound 54-5, tert-butyl 1-[[1-(2,6-dioxo-3-piperidyl)indolin-4-yl]methyl]piperidine-4-carboxylate]: the Kd in assay [2] (setting [4]) was under 100000 nM. The same measure, in the same setting: the value for `CC(C)(C)OC(=O)C1CCN(c2cccc3c2CCN3[C@H]2CCC(=O)NC2=O)CC1` (single isomer, unassigned) [Compound 48-6] was under 100000 nM. Regarding `CC(C)(C)OC(=O)C1CCN(c2cccc3c2CCN3[C@@H]2CCC(=O)NC2=O)CC1` (single isomer, unassigned) [Compound 48-7], in assay [2] (setting [4]), the Kd was under 100000 nM. With `CC(C)(C)OC(=O)N1CCN(c2cccc3c2CCCN3[C@@H]2CCC(=O)NC2=O)CC1` (single isomer, unassigned) [Compound 68-4], the Kd in assay [2] (setting [5]) was under 1000 nM. Consider `CC(C)(C)OC(=O)N1CCC2(CC1)Cc1ccccc1N(C1CCC(=O)NC1=O)C2` (stereo not drawn) [Compound 64-7, tert-butyl 1-(2,6-dioxo-3-piperidyl)spiro[2,4-dihydroquinoline-3,4′-piperidine]-1′-carboxylate], for which, in assay [1] (setting [6]), the Kd was under 100000 nM. In the case of `CC(C)(C)OC(=O)N1CC[C@@H]2CN(c3cccc4c3CCN4[C@H]3CCC(=O)NC3=O)CC[C@@H]21` (single isomer, unassigned) [Compound 56-8b], in assay [2] (setting [4]), the Kd is under 100000 nM. Still for that read-out and setting: the value for `CC(C)(C)OC(=O)N1CCC(c2cc3c(cc2F)N([C@H]2CCC(=O)NC2=O)CC3)CC1` (single isomer, unassigned) [Compound 52-6] was under 1000 nM. Same read-out and setting: the value for `O=C1CCC(N2CCc3c(N4CCC(C(F)(F)CO)CC4)cccc32)C(=O)N1` (stereo not drawn) [Compound 51-12, 3-[4-[4-(1,1-difluoro-2-hydroxy-ethyl)-1-piperidyl]indolin-1-yl]piperidine-2,6-dione] was under 100000 nM. `O=C1CCC(N2CCOc3c([C@@H]4CCCNC4)cccc32)C(=O)N1` (stereo partly drawn) [Compound 13-11, 3-[8-[(3S)-3-piperidyl]-2,3-dihydro-1,4-benzoxazin-4-yl]piperidine-2,6-dione]: the Kd in assay [2] (setting [7]) is at most 100000 nM.

Regarding `CNC1CCN(c2cccc3c2O[C@H](C)CN3C2CCC(=O)NC2=O)CC1` (stereo partly drawn) [Compound 18-10, 3-[(2R)-2-methyl-8-[4-(methylamino)-1-piperidyl]-2,3-dihydro-1,4-benzoxazin-4-yl]piperidine-2,6-dione], the Kd in assay [2] (setting [7]) is at most 100000 nM. `CC(C)(C)OC(=O)N1CCC(c2cccc3c2CCN3[C@H]2CCC(=O)NC2=O)CC1` (single isomer, unassigned) [Compound 41-5]: the Kd in assay [1] (setting [3]) was under 1000 nM. As for `O=C1CCC(N2CCOc3c(N4CCNCC4)cccc32)C(=O)N1` (stereo not drawn) [Compound 10-10, 3-(8-(piperazin-1-yl)-2H-benzo[b][1,4]oxazin-4(3H)-yl)piperidine-2,6-dione], in assay [2] (setting [7]), the Kd was at most 100000 nM. With `CC(C)(C)OC(=O)C1CCN(Cc2cccc3c2CCN3[C@@H]2CCC(=O)NC2=O)CC1` (single isomer, unassigned) [Compound 54-7], the Kd in assay [2] (setting [4]) was under 100000 nM. In the case of `CN(C(=O)OC(C)(C)C)C1CCN(c2cccc3c2CCCN3[C@H]2CCC(=O)NC2=O)CC1` (single isomer, unassigned) [Compound 61-5], in assay [2] (setting [5]), the Kd was under 100000 nM. As to `O=C1CC[C@@H](N2CCc3c(N4CCC(CO)CC4)cccc32)C(=O)N1` (single isomer, unassigned) [Compound 53-6], in assay [2] (setting [4]), the Kd is under 100000 nM.

Take `O=C1CCC(c2ccnc3c2OCCN3C2CCC(=O)NC2=O)CC1` (stereo not drawn) [Compound 8-10, 3-(8-(4-oxocyclohexyl)-2,3-dihydro-4H-pyrido[3,2-b][1,4]oxazin-4-yl)piperidine-2,6-dione]: the Kd in assay [2] (setting [7]) was at most 100000 nM.

Values taken from patent US12421220B2, “Bicyclic-substituted glutarimide cereblon binders” (C4 THERAPEUTICS, INC., priority 2022, dated 2025).
